Reference: ChEMBL document CHEMBL1156033, “Discovery of the imidazo[1,5-a][1,2,4]-triazolo[1,5-d][1,4]benzodiazepine scaffold as a novel, potent and selective GABA(A) alpha5 inverse agonist series” (Bioorg Med Chem Lett, 2009)
Converted amounts (≈) assume the structure as drawn. The source made the active and inactive calls. The rule behind the calls is not given here.

Legend:
[1] = molecular target: T1, GABA-A receptor; alpha-5/beta-3/gamma-2 (Homo sapiens, UniProt P18507+P28472+P31644)
T1 sequence (P18507 whole entry): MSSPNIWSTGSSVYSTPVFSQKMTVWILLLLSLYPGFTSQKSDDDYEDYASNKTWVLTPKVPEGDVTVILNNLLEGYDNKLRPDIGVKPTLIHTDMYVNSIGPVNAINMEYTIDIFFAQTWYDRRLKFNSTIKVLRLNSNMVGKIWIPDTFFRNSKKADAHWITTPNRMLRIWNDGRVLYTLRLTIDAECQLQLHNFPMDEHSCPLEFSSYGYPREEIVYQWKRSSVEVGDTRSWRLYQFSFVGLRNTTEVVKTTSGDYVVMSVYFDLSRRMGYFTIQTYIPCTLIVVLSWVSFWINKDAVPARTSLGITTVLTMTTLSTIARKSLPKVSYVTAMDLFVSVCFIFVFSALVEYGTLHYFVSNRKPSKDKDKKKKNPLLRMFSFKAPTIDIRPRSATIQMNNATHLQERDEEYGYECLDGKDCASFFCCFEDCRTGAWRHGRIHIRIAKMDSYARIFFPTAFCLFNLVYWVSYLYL
T1 sequence (P28472 whole entry): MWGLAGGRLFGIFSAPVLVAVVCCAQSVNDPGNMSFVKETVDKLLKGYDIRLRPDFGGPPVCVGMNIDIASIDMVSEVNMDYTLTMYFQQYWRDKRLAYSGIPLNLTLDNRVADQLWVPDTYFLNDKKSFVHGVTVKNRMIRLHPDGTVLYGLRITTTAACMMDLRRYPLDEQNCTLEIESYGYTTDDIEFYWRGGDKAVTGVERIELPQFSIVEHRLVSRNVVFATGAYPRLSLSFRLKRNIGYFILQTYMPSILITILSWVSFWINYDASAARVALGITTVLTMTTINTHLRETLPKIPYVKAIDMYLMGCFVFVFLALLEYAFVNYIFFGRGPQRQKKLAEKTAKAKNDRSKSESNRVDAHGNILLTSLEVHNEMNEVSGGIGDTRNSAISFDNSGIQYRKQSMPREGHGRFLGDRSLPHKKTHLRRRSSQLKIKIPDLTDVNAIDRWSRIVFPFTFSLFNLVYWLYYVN
T1 sequence (P31644 whole entry): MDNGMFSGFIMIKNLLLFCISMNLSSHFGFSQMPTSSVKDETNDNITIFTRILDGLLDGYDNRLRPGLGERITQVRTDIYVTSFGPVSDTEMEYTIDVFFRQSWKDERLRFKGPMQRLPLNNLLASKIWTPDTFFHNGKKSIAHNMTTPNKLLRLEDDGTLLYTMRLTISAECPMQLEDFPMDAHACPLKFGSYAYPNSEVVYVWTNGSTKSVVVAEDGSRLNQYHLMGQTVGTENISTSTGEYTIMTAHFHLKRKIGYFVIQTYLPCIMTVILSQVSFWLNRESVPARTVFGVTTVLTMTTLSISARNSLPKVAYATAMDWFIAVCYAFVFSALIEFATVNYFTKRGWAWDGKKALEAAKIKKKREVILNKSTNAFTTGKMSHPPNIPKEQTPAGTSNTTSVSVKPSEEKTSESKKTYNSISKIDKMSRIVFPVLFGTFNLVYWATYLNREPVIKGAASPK
Description: Binding affinity to GABAA alpha-5-beta-3-gamma-2 receptor

physchem [2] = settings: buffer, pH 7.4
Description: Lipophilicity, log Dof the compound at pH 7.4

Liver microsomes [3] = settings: human
Description: Clearance in human liver microsomes

physchem [4] = test: physchem
in vitro = settings: PAMPA
Description: Membrane permeability by PAMPA

Rattus norvegicus [5] = test: Inhibition of scopolamine-induced cognitive deficit in Wistar rat at 3 mg/kg, ip by passive avoidance test; format: functional, organism-based; set-up: dose 3 mg/kg
Liver microsomes [6] = settings: rat
Description: Clearance in rat liver microsomes

Rattus norvegicus [7] = test: Inhibition of scopolamine-induced cognitive deficit in Wistar rat at 100 mg/kg, ip by passive avoidance test; format: functional, organism-based; set-up: dose 100 mg/kg

With `CCOc1ncn2c1Cn1nccc1-c1cc(Cl)ccc1-2` as the compound, how does the Ki [1] read?
The Ki was 1.4 nM.

With `c1ccc2c(c1)-c1ncncc1Cc1cncn1-2` as the compound, how does the Ki [1] read?
The Ki was 410 nM.

For `N#Cc1ccc2c(c1)-c1nncn1Cc1c(Cl)ncn1-2`, which Ki [1] is on record?
The Ki was 25.3 nM.

For `Cc1ncn2c1Cn1cc(CN3CCCC3=O)nc1-c1cc(Br)ccc1-2`, which Ki [1] is on record?
The Ki was 1.6 nM.

Which Ki [1] does the source give for `CCOC(=O)c1ncn2c1Cn1cnnc1-c1cc(F)ccc1-2` here?
The Ki was 1.7 nM.

Which Ki [1] does the source give for `CCOC(=O)c1ncn2c1Cn1c(Cc3ccccc3)nnc1-c1cc(OC)ccc1-2` here?
Its Ki is 22.9 nM.

With `CCOC(=O)c1ncn2c1Cc1cnc(-c3ccccc3)nc1-c1ccccc1-2` as the compound, how does the Ki [1] read?
The Ki was 171 nM.

With `CCOC(=O)c1ncn2c1Cc1cnc(C)nc1-c1cc(F)ccc1-2` as the compound, how does the Ki [1] read?
The Ki was 4.6 nM.

For `C#Cc1ccc2c(c1)-c1nc(C)ncc1Cc1c(Cl)ncn1-2`, which Ki [1] is on record?
Its Ki is 133 nM.

Which Ki [1] does the source give for `CCOC(=O)c1ncn2c1Cc1cnc(C3CC3)nc1-c1cc(F)ccc1-2` here?
The Ki was 7.8 nM.

Which Ki [1] does the source give for `Clc1ncn2c1Cc1cncnc1-c1cc(Br)ccc1-2` here?
The Ki was 136 nM.

For `CCOC(=O)c1ncn2c1Cc1cncnc1-c1ccccc1-2`, which Ki [1] is on record?
Its Ki is 3.7 nM.

For `CCOC(=O)c1ncn2c1Cn1ncnc1-c1cc(Br)ccc1-2`, which Ki [1] is on record?
The Ki was 0.3 nM.

For `CCOc1ncn2c1Cn1nccc1-c1ccccc1-2`, which Ki [1] is on record?
The Ki was 0.2 nM.

Which Ki [1] does the source give for `C#Cc1ccc2c(c1)-c1nncn1Cc1c(Cl)ncn1-2` here?
Its Ki is 33.6 nM.

With `CCOC(=O)c1ncn2c1Cn1ncnc1-c1cc(C3CC3)ccc1-2` as the compound, how does the Ki [1] read?
Its Ki is 0.6 nM.

Which Ki [1] does the source give for `CCCc1ncc2c(n1)-c1cc(F)ccc1-n1cnc(C(=O)OCC)c1C2` here?
Its Ki is 8 nM.

Which Ki [1] does the source give for `Clc1ncn2c1Cn1nccc1-c1ccccc1-2` here?
The Ki was 2 nM.

Which Ki [1] does the source give for `Cc1ncc2c(n1)-c1cc(Br)ccc1-n1cnc(Cl)c1C2` here?
The Ki was 61 nM.

Which Ki [1] does the source give for `Clc1ncn2c1Cc1cncnc1-c1ccccc1-2` here?
The Ki was 15.6 nM.

Which Ki [1] does the source give for `CCOC(=O)c1ncn2c1Cc1cnc(C(C)C)nc1-c1ccccc1-2` here?
Its Ki is 8.9 nM.

Which Ki [1] does the source give for `C#Cc1ccc2c(c1)-c1nncn1Cc1c(C(=O)OCC)ncn1-2` here?
Its Ki is 2.3 nM.

With `CCOC(=O)c1ncn2c1Cn1ncnc1-c1cc(C)ccc1-2` as the compound, how does the Ki [1] read?
The Ki was 0.5 nM.

With `CCOC(=O)c1ncn2c1Cc1cnc(C(C)C)nc1-c1cc(F)ccc1-2` as the compound, how does the Ki [1] read?
The Ki was 11.2 nM.

With `CCOC(=O)c1ncn2c1Cc1cnc(C3CC3)nc1-c1ccccc1-2` as the compound, how does the Ki [1] read?
The Ki was 7.6 nM.

For `Cc1cn2c(n1)-c1cc(Br)ccc1-n1cnc(C)c1C2`, which Ki [1] is on record?
Its Ki is 119 nM.

Which Ki [1] does the source give for `C#Cc1ccc2c(c1)-c1nc(C)ncc1Cc1c(C(=O)OCC)ncn1-2` here?
The Ki was 8.1 nM.

And the logD (physchem [2])?
Its logD is 2.68.

What about the CL (Liver microsomes [3]) of the same compound?
Its CL is 8000 µL/min/mg.

What about the solubility (physchem [4]) of the same compound?
The solubility was 10 µg/mL (≈ 29 µM).

What about the Papp (in vitro) of the same compound?
Its Papp is 2.78 ×10⁻⁶ cm/s.

Which Ki [1] does the source give for `CCOC(=O)c1ncn2c1Cn1c(-c3ccccc3)nnc1-c1cc(OC)ccc1-2` here?
The Ki was 53.8 nM.

Which results are given for `CCOC(=O)c1ncn2c1Cn1cnnc1-c1cc(OC)ccc1-2`?
Ki [1]: 1.4 nM; inhibition (Rattus norvegicus [5]): Active

For `CCOC(=O)c1ncn2c1Cn1c(C)nnc1-c1cc(OC)ccc1-2`, which Ki [1] is on record?
Its Ki is 14.5 nM.

Which Ki [1] does the source give for `CC(C)C(=O)c1ncn2c1Cn1cnnc1-c1cc(Br)ccc1-2` here?
Its Ki is 55.5 nM.

Which Ki [1] does the source give for `Cc1ncc2c(n1)-c1ccccc1-n1cnc(Cl)c1C2` here?
Its Ki is 15.6 nM.

Which Ki [1] does the source give for `Cc1ncn2c1Cn1ccnc1-c1cc(Br)ccc1-2` here?
Its Ki is 6.6 nM.

Which Ki [1] does the source give for `C#Cc1ncn2c1Cn1cnnc1-c1cc(Br)ccc1-2` here?
The Ki was 7.8 nM.

With `Cc1ncn2c1Cn1cnnc1-c1cc(Br)ccc1-2` as the compound, how does the Ki [1] read?
The Ki was 150 nM.

For `Cc1ncn2c1Cn1nccc1-c1ccccc1-2`, which Ki [1] is on record?
The Ki was 3 nM.

Which Ki [1] does the source give for `Cc1ncn2c1Cn1c(C)cnc1-c1cc(Br)ccc1-2` here?
The Ki was 11.7 nM.

With `CCOC(=O)c1ncn2c1Cn1ncnc1-c1cc(OC)ccc1-2` as the compound, how does the Ki [1] read?
Its Ki is 0.2 nM.

Which Ki [1] does the source give for `O=C(c1ncn2c1Cn1nccc1-c1ccccc1-2)C1CC1` here?
Its Ki is 1 nM.

With `C#Cc1ccc2c(c1)-c1ncnn1Cc1c(C(=O)OCC)ncn1-2` as the compound, how does the Ki [1] read?
The Ki was 0.6 nM.

Which Ki [1] does the source give for `CCOC(=O)c1ncn2c1Cn1cnnc1-c1ccccc1-2` here?
The Ki was 0.8 nM.

What does the source list for `CCOC(=O)c1ncn2c1Cn1ncnc1-c1cc(Cl)ccc1-2`?
Ki [1]: 0.2 nM; logD (physchem [2]): 1.83; solubility (physchem [4]): 15 µg/mL (≈ 45.5 µM); Papp (in vitro): 5.59 ×10⁻⁶ cm/s

With `CCOC(=O)c1ncn2c1Cn1cnnc1-c1cc(Br)ccc1-2` as the compound, how does the Ki [1] read?
Its Ki is 0.6 nM.

With `CCOC(=O)c1ncn2c1Cn1cnnc1-c1cc(Cl)ccc1-2` as the compound, how does the Ki [1] read?
The Ki was 1.2 nM.

Which Ki [1] does the source give for `c1ccc2c(c1)-c1ncnn1Cc1cncn1-2` here?
The Ki was 6.4 nM.

And the logD (physchem [2])?
The logD was 0.73.

What about the CL (Liver microsomes [3]) of the same compound?
The CL was 8000 µL/min/mg.

And the solubility (physchem [4])?
Its solubility is 231 µg/mL (≈ 1030 µM).

What about the CL (Liver microsomes [6]) of the same compound?
Its CL is 4000 µL/min/mg.

And the Papp (in vitro)?
The Papp was 2.87 ×10⁻⁶ cm/s.

Which Ki [1] does the source give for `CCOC(=O)c1ncn2c1Cn1ncnc1-c1cc(NC(=O)C(C)C)ccc1-2` here?
Its Ki is 6.4 nM.

Which Ki [1] does the source give for `CCOC(=O)c1ncn2c1Cc1cnc(Cc3ccc(OC)cc3)nc1-c1ccccc1-2` here?
The Ki was 12.5 nM.

For `CCOC(=O)c1ncn2c1Cn1c(Cc3ccccc3)nnc1-c1cc(Br)ccc1-2`, which Ki [1] is on record?
The Ki was 19.1 nM.

Which Ki [1] does the source give for `CCOC(=O)c1ncn2c1Cn1ncnc1-c1ccccc1-2` here?
The Ki was 0.2 nM.

For `CCOC(=O)c1ncn2c1Cc1cncnc1-c1cc(Br)ccc1-2`, which Ki [1] is on record?
Its Ki is 20.2 nM.

Which Ki [1] does the source give for `CCOC(=O)c1ncn2c1Cn1ncnc1-c1cc(OC(F)(F)F)ccc1-2` here?
Its Ki is 0.8 nM.

Which Ki [1] does the source give for `CCOC(=O)c1ncn2c1Cn1cnnc1-c1cc(O)ccc1-2` here?
The Ki was 0.6 nM.

With `CCCc1ncc2c(n1)-c1ccccc1-n1cnc(C(=O)OCC)c1C2` as the compound, how does the Ki [1] read?
Its Ki is 5.5 nM.

With `Clc1ncn2c1Cn1cnnc1-c1cc(Br)ccc1-2` as the compound, how does the Ki [1] read?
Its Ki is 27.4 nM.

Which Ki [1] does the source give for `CCOC(=O)c1cn2c(n1)-c1cc(Br)ccc1-n1cnc(C)c1C2` here?
The Ki was 5.4 nM.

What does the source list for `CCOC(=O)c1ncn2c1Cc1cnc(C)nc1-c1cc(Br)ccc1-2`?
Ki [1]: 12.5 nM; logD (physchem [2]): 2.68; CL (Liver microsomes [3]): 4000 µL/min/mg; solubility (physchem [4]): 20 µg/mL (≈ 50.1 µM); inhibition (Rattus norvegicus [7]): Active; Papp (in vitro): 3.6 ×10⁻⁶ cm/s

For `Cc1ncn2c1Cn1cc(CO)nc1-c1cc(Br)ccc1-2`, which Ki [1] is on record?
The Ki was 8.1 nM.

Which Ki [1] does the source give for `CCOC(=O)c1ncn2c1Cc1cnc(C)nc1-c1ccccc1-2` here?
The Ki was 3.8 nM.

For `Cc1ncn2c1Cn1nccc1-c1cc(Br)ccc1-2`, which Ki [1] is on record?
Its Ki is 49.1 nM.

For `CCOC(=O)c1ncn2c1Cn1cnnc1-c1cc(C)ccc1-2`, which Ki [1] is on record?
The Ki was 2.1 nM.

Which Ki [1] does the source give for `Brc1ccc2c(c1)-c1nncn1Cc1c(I)ncn1-2` here?
Its Ki is 7.8 nM.
